{"source": "paper PMC9791135", "about": "“A penetratin-derived peptide reduces the membrane permeabilization and cell toxicity of α-synuclein oligomers” (The Journal of Biological Chemistry, 2022)", "key": {"α-syn [1]": {"target": "T1, α-syn (Homo sapiens, UniProt P37840)", "T1 construct": "made in house; host or cells: Escherichia coli BL21 (DE3), plasmid pET11-D", "experiment": "ThT fluorescence assay of unseeded α-syn fibrillation in the presence of peptides", "format": "biochemical", "settings": "1 mg/ml α-syn, 0–0.5 mg/ml peptide, 48 h; for ThT signal end level: unseeded ThT, 37 °C, versus α-syn alone", "description": "To test the effects of these selected nine peptides on the aggregation of α-syn, we performed a thioflavin T (ThT) fluorescence assay in the presence of 1 mg/ml α-syn and 0 to 0.5 mg/ml peptide for 48 h (raw data in Fig. S3). Furthermore, the peptides alone were monitored for self-fibrillation. […] High concentrations of p222, p194, and p249 led to a decline in ThT fluorescence after reaching a plateau, possibly because of the formation of insoluble amorphous species. We also carried out seeding experiments by adding 5% sonicated preaggregated α-syn fibrils to the ThT assay.\nAbout 150 μl of 70 μM (1 mg/ml) α-syn, 40 μM ThT, and varying amounts of peptides (0, 0.06, 0.125, 0. 25, 0.375, and 0.5 mg/ml) were transferred in triplicates to a black COSTAR 96-well clear bottom plate (Nunc, Thermo Fisher Scientific), and including a 3 mm diameter glass bead (Glaswarenfabrik Karl Hecht GmbH & Co KG) per well to increase reproducibility ([100]). The plate was sealed with Crystal Clear sealing tape (Hampton Research) and incubated at 37 °C in a CLARIOstar Plus (BMG LABTECH) fluorescence plate reader. Fibrillation was carried out for ∼48 h with 300 rpm double orbital shaking between the readings for 372 s (excitation/emission: 448∕485 nm). Seeding experiments were performed using the same setting as for the fibrillation assay as described ([39]). Briefly, the experiments were done in triplicates in the presence of 0.05 mg/ml of α-syn fibril seeds (5% seeding) and 1 mg/ml of peptides in a solution of 1 mg/ml α-syn in 96-well plates."}, "α-syn [2]": {"target": "T1, α-syn", "experiment": "SDS-PAGE of soluble α-syn left in supernatant after fibrillation", "format": "biochemical", "settings": "for Amount of soluble α-syn monomer left in the supernatant, in words: SDS-PAGE after centrifugation of fibrillated samples; for Soluble α-syn left in supernatant (SDS-PAGE gel): after end of incubation, centrifuged 13,000 rpm 15 min, versus α-syn alone", "description": "Overall, there was a reasonable but not perfect correspondence between SDS-PAGE and ThT data.\nTo determine the amount of soluble α-syn, fibrillated samples were centrifuged (13,000 rpm, 15 min) and the supernatants were loaded on Bis–Tris 15% acrylamide gel with prestained protein ladder (Thermo Scientific) and run in a Bis–Tris running buffer at 150 V for 70 min, stained for 20 min in Coomassie brilliant blue (1.2 mM Coomassie brilliant blue, 5% ethanol, and 7% acetic acid), and destained overnight in a destaining solution (5% ethanol and 5% acetic acid). Gel bands were quantified using ImageJ."}, "α-syn [3]": {"target": "T1, α-syn", "experiment": "ATR–FTIR of fibrillated α-syn–peptide samples", "format": "biochemical", "settings": "for Amount of amyloid structures (ATR–FTIR), in words: fibrillated α-syn samples in the presence of peptides; for ATR–FTIR (amyloid structures): fibrillated samples after washing, versus α-syn alone", "source_text": "(§1) To analyze the secondary structure of the final aggregates, we recorded far-UV CD and attenuated total reflectance (ATR)–FTIR spectra for fibrillated samples after washing to remove free α-syn and peptides. […] Overall, as the concentration of peptides increases, the intensity of signal at 218 nm decreases (Fig. 4A). We observed that α-syn fibrils formed in the presence of p194, p222, p235, and p249 precipitated rapidly after mixing with these peptides. This likely gives rise to light scattering, which reduces CD signals. To overcome these artifacts, we turned to ATR–FTIR spectroscopy, which is not sensitive to scattering. […] Both far-UV CD and ATR–FTIR spectroscopy confirm extensive β-sheet structure. However, in the presence of peptides, some structural changes were observed as reflected by the decrease in the amyloid cross β-sheet structure at ∼1629 cm^−1 and increases in the random and coil structures (∼1656 and ∼1676 cm^−1, respectively) (Table 2). […] Taking all together, ATR–FTIR data are in reasonable agreement with far-UV CD.\nThe samples prepared in the CD section were also used to measure FTIR spectra on a Tensor 27 FTIR spectrophotometer (Bruker). About 2 μl α-syn fibrils were dried on the ATR crystal with a gentle stream of nitrogen gas. Spectra were accumulations of 68 scans in the 4000 to 1000 cm^−1 range. Baseline correlation, second derivative, and atmospheric compensation were performed with OPUS 5.5 software (Bruker, Germany). Signals in the amide I region (∼1550–1700 cm^−1) were smoothed and deconvoluted with PeakFit, version 4.12 software (ِSystat Software Inc) using Lorentzian fitting."}, "α-syn [4]": {"target": "T1, α-syn", "experiment": "Far-UV CD of fibrillated α-syn–peptide samples", "format": "biochemical", "settings": "fibrillated samples after washing, signal at 218 nm; versus α-syn alone", "source_text": "as §1\nTo remove free α-syn and peptides, fibrillated samples were centrifuged (13,000 rpm, 15 min). This leaves monomeric α-syn plus unbound and free peptides in the supernatant. The supernatant was discarded, and the pellet was washed two times in the same volume of PBS buffer, pH 7.4, to ensure complete removal of monomeric α-syn and free peptides. Far-UV CD spectra were recorded at 25 °C on a Chirascan CD Spectrophotometer (Applied Photophysics) using a 0.1 mm quartz cuvette in the wavelength range of 200 to 260 nm with 1 nm bandwidth and three accumulations. The buffer spectrum was subtracted, and the results were expressed as mean residue ellipticity [θ] (deg cm^2 dmol^−1)."}, "SH-SY5Y cells": {"test_system": "SH-SY5Y cells", "experiment": "MTT cell viability assay, substance alone", "settings": "for Cell viability (MTT): SH-SY5Y cells, 35 μg/ml peptide alone, 24 h", "description": "The effect of the peptides on αSOs toxicity in SH-SY5Y cells using 3-(4, 5-dimethylthiazol-2-yl)-2,5-diphenyltetrazolium bromide (MTT) cell viability assay was also tested to complement our calcein data.\nWe used the MTT assay to measure cell viability after 24 h treatment with αSOs in the presence of peptides. SH-SY5Y cells were seeded in 96-well plates at a density of 5 × 10^4 cell/ml in Dulbecco's modified Eagle's medium supplemented with 10% FBS, 100 unit/ml penicillin, and […]. The cells were incubated in a humidified atmosphere incubator with 5% CO2 and 95% humidity at 37 °C for 24 h. The culture medium was then replaced with fresh medium containing 10 μM αSOs with peptides and incubated for another 24 h. Then the cell medium was replaced with a fresh medium containing 20% MTT (5 mg/ml), and the cells were incubated for an additional 4 h at 37 °C. Then 100 μl of dimethyl sulfoxide was added to dissolve formazan crystals by incubating for 30 min on a shaker at RT. Consequently, absorbance was measured by using a plate reader at 570 nm."}}, "note": "Where a SMILES comes first, the peptide text is derived from it.", "data": [{"compound": "CC(C)C[C@H](NC(=O)[C@H](Cc1c[nH]cn1)NC(=O)[C@H](CO)NC(=O)[C@H](CO)NC(=O)[C@H](C)NC(=O)[C@@H](N)CO)C(=O)N[C@@H](Cc1c[nH]cn1)C(=O)N[C@@H](Cc1c[nH]cn1)C(=O)NCC(=O)N[C@@H](Cc1c[nH]cn1)C(=O)N[C@@H](CO)C(=O)NCC(=O)NCC(=O)O", "note": "[p168] (H-SASSHLHHGHSGG-OH)", "values": [{"measurement": "Effect on α-syn aggregation (ThT), in words", "setting": "α-syn [1]", "result": "did not change the lag phase duration"}, {"measurement": "Amount of soluble α-syn monomer left in the supernatant, in words", "setting": "α-syn [2]", "result": "decrease solubility"}, {"measurement": "Amount of amyloid structures (ATR–FTIR), in words", "setting": "α-syn [3]", "result": "did not show significant changes in FTIR spectra"}, {"measurement": "Far-UV CD (β-sheet structures)", "setting": "α-syn [4]", "result": "↓↓β"}, {"measurement": "Cell viability (MTT)", "setting": "SH-SY5Y cells", "result": 94, "unit": "%"}]}, {"compound": "CC[C@H](C)[C@H](NC(=O)[C@H](Cc1c[nH]c2ccccc12)NC(=O)[C@H](CCCNC(=N)N)NC(=O)[C@H](Cc1c[nH]c2ccccc12)NC(=O)[C@H](CCCCN)NC(=O)[C@@H](NC(=O)[C@H](CCCCN)NC(=O)[C@H](CCC(N)=O)NC(=O)[C@@H](N)CC(N)=O)[C@@H](C)CC)C(=O)N[C@@H](CCC(N)=O)C(=O)N[C@@H](CCCNC(=N)N)C(=O)N[C@@H](Cc1ccccc1)C(=O)N[C@@H](CCCNC(=N)N)C(=O)N[C@@H](CCCCN)C(=O)N[C@@H](CCCCN)C(=O)N[C@@H](CCSC)C(=O)O", "note": "[p235] (H-NQKIKWRWIQRFRKKM-OH; N-terminus and C-terminus assumed)", "values": [{"measurement": "Effect on α-syn aggregation (ThT), in words", "setting": "α-syn [1]", "result": "slight aggregation-promoting effect"}, {"measurement": "ThT signal end level", "setting": "α-syn [1]", "result": "↑↑"}, {"measurement": "ATR–FTIR (amyloid structures)", "setting": "α-syn [3]", "result": "↓↓↓ amyl"}, {"measurement": "Amount of amyloid structures (ATR–FTIR), in words", "setting": "α-syn [3]", "result": "decreased"}, {"measurement": "Far-UV CD (β-sheet structures)", "setting": "α-syn [4]", "result": "↓↓↓β"}, {"measurement": "Toxicity to SH-SY5Y cells, in words", "setting": "SH-SY5Y cells", "result": "slight toxicity"}]}, {"compound": "CC[C@H](C)[C@H](NC(=O)[C@H](Cc1ccccc1)NC(=O)[C@H](Cc1c[nH]c2ccccc12)NC(=O)[C@H](CCCNC(=N)N)NC(=O)[C@H](CC(N)=O)NC(=O)[C@@H](NC(=O)[C@H](CCC(N)=O)NC(=O)[C@H](CCCCN)NC(=O)[C@@H](N)CCSC)[C@@H](C)CC)C(=O)N[C@@H](CCCNC(=N)N)C(=O)N[C@@H](Cc1c[nH]c2ccccc12)C(=O)N[C@@H](CCC(N)=O)C(=O)N[C@@H](CCCCN)C(=O)N[C@@H](CCCCN)C(=O)N[C@@H](CCCNC(=N)N)C(=O)N[C@@H](CCCCN)C(=O)O", "note": "[p249] (H-MKQINRWFIRWQKKRK-OH; N-terminus and C-terminus assumed)", "values": [{"measurement": "Effect on α-syn aggregation (ThT), in words", "setting": "α-syn [1]", "result": "slight aggregation-promoting effect"}, {"measurement": "Amount of soluble α-syn monomer left in the supernatant, in words", "setting": "α-syn [2]", "result": "decrease solubility"}, {"measurement": "Soluble α-syn left in supernatant (SDS-PAGE gel)", "setting": "α-syn [2]", "result": "↓↓"}, {"measurement": "ATR–FTIR (amyloid structures)", "setting": "α-syn [3]", "result": "↓↓↓ amyl"}, {"measurement": "Amount of amyloid structures (ATR–FTIR), in words", "setting": "α-syn [3]", "result": "decreased"}, {"measurement": "Far-UV CD (β-sheet structures)", "setting": "α-syn [4]", "result": "↓↓↓β"}, {"measurement": "Toxicity to SH-SY5Y cells, in words", "setting": "SH-SY5Y cells", "result": "slight toxicity"}, {"measurement": "Cell viability (MTT)", "setting": "SH-SY5Y cells", "result": 80, "unit": "%"}]}, {"compound": "RQIKIWFQNRRFKWKK [p222]", "values": [{"measurement": "Effect on α-syn aggregation (ThT), in words", "setting": "α-syn [1]", "result": "slight aggregation-promoting effect"}, {"measurement": "ThT signal end level", "setting": "α-syn [1]", "result": "↑↑"}, {"measurement": "Amount of soluble α-syn monomer left in the supernatant, in words", "setting": "α-syn [2]", "result": "decrease solubility"}, {"measurement": "Soluble α-syn left in supernatant (SDS-PAGE gel)", "setting": "α-syn [2]", "result": "↓↓"}, {"measurement": "ATR–FTIR (amyloid structures)", "setting": "α-syn [3]", "result": "↓↓ amyl"}, {"measurement": "Amount of amyloid structures (ATR–FTIR), in words", "setting": "α-syn [3]", "result": "decreased"}, {"measurement": "Far-UV CD (β-sheet structures)", "setting": "α-syn [4]", "result": "↓↓↓β"}, {"measurement": "Toxicity to SH-SY5Y cells, in words", "setting": "SH-SY5Y cells", "result": "slight toxicity"}]}]}
